# Measurements as given in PubChem BioAssay (NCI).
#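 Protocol summary: plate cells (96-well), add compound at 5 concentrations, incubate 48 h, interpolate endpoints linearly. The concentration for 50% growth inhibition is given as GI50. TGI marks complete inhibition of growth.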
# Columns and labels:
# Assay in all cases: NCI tumour cell line growth inhibition, 48 h
# [1] = system: ACHN renal
# [2] = system: HS 578T breast
# [3] = system: OVCAR-8 ovarian
# [4] = system: SF-295 CNS
# [5] = system: SK-MEL-28 melanoma
# [6] = system: SK-MEL-5 melanoma
# [7] = system: SR leukemia
# [8] = system: TK-10 renal
# [9] = system: UACC-257 melanoma
# [10] = system: UACC-62 melanoma
Compound,GI50 [1],TGI [1],GI50 [2],TGI [2],GI50 [3],TGI [3],GI50 [4],TGI [4],GI50 [5],TGI [5],GI50 [6],TGI [6],GI50 [7],TGI [7],GI50 [8],TGI [8],GI50 [9],TGI [9],GI50 [10],TGI [10]
COC(=O)[C@@]12OC[C@]34[C@H]([C@@H](O)[C@@H]1O)[C@@]1(C)[C@H](O)C(=O)C=C(C)[C@@H]1C[C@H]3OC(=O)C(OC(C)=O)[C@@H]24 (some centres undefined),0.0502 µM,0.28 µM,0.0193 µM,0.0523 µM,0.0371 µM,0.266 µM,0.0241 µM,0.0847 µM,0.019 µM,0.0642 µM,0.0162 µM,0.0406 µM,0.0195 µM,0.0425 µM,0.0374 µM,0.197 µM,0.0668 µM,0.428 µM,0.0245 µM,0.142 µM
O=C1c2cccc(NCCN=Cc3cc([N+](=O)[O-])ccc3O)c2C(=O)c2c(NCCN=Cc3cc([N+](=O)[O-])ccc3O)cccc21,5.61 µM,> 100 µM,2.74 µM,29.4 µM,2.55 µM,> 100 µM,2.08 µM,52.1 µM,14.9 µM,> 100 µM,–,–,1.49 µM,> 100 µM,28.5 µM,> 100 µM,> 100 µM,> 100 µM,33 µM,> 100 µM
COc1cc2ccccc2oc1=O,–,> 100 µM,–,> 100 µM,–,> 100 µM,–,> 100 µM,–,> 100 µM,–,> 100 µM,–,> 100 µM,–,> 100 µM,–,> 100 µM,–,> 100 µM
CC1OC(n2c3ccccc3c3c4c(c5c6ccccc6[nH]c5c32)C(=O)N(CCN[C@@H]2CCC[C@H]2N)C4=O)CC(O)C1O (some centres undefined),2.97 µM,10.5 µM,1.63 µM,9.73 µM,1.93 µM,9.11 µM,1.74 µM,7.04 µM,2.65 µM,9.59 µM,1.22 µM,3.68 µM,0.439 µM,3.94 µM,2.98 µM,11 µM,3.73 µM,10.5 µM,0.872 µM,2.8 µM
O=C(Nc1ccncc1)C(=O)c1cn(Cc2ccc(Cl)cc2)c2ccccc12,0.082 µM,> 100 µM,0.0339 µM,> 100 µM,0.0549 µM,> 100 µM,0.0217 µM,0.0803 µM,0.0711 µM,> 100 µM,0.0309 µM,> 35 µM,0.0298 µM,> 100 µM,0.457 µM,> 100 µM,–,–,0.0514 µM,> 100 µM
CCCc1cc(=O)[nH]c(-n2nc(C)cc2C)n1,3.97 µM,> 100 µM,15 µM,> 100 µM,2.41 µM,> 100 µM,1.07 µM,8.81 µM,3.8 µM,40.4 µM,3.18 µM,47.6 µM,3.46 µM,> 100 µM,–,–,6.23 µM,40 µM,2.31 µM,35.7 µM
Cc1cc(NCCN(C(C)C)C(C)C)nc(/N=C(\N)Nc2ccc(Cl)c(C(F)(F)F)c2)n1,0.381 µM,1.06 µM,0.473 µM,1.69 µM,0.275 µM,0.812 µM,0.752 µM,2.14 µM,0.176 µM,0.32 µM,0.195 µM,0.492 µM,0.155 µM,0.425 µM,0.297 µM,1.04 µM,0.187 µM,0.337 µM,0.198 µM,0.417 µM
C=CCC1(O)c2ccccc2C(=O)c2c(NCCN(CC(=O)OCC)CC(=O)OCC)cccc21 (centres undefined),> 100 µM,> 100 µM,> 100 µM,> 100 µM,> 100 µM,> 100 µM,> 100 µM,> 100 µM,> 100 µM,> 100 µM,> 100 µM,> 100 µM,46.5 µM,> 100 µM,> 100 µM,> 100 µM,> 100 µM,> 100 µM,> 100 µM,> 100 µM
CNC(=O)c1cccc2cc(Oc3ccnc4cc(OCC5(N)CC5)c(OC)cc34)ccc12,1.96 µM,4.48 µM,5.5 µM,30.2 µM,8.77 µM,27.4 µM,10.1 µM,25 µM,10.4 µM,30.3 µM,13.4 µM,26.7 µM,2.29 µM,10.6 µM,12.9 µM,26.6 µM,16.5 µM,32.2 µM,4.03 µM,15.9 µM
NC(=O)c1ccc(I)c(N=O)c1,30.8 µM,> 100 µM,38.5 µM,> 100 µM,25.8 µM,60.6 µM,> 100 µM,> 100 µM,46.9 µM,> 100 µM,34.2 µM,> 100 µM,40.6 µM,> 100 µM,34.9 µM,> 100 µM,35.3 µM,> 100 µM,40.5 µM,> 100 µM
COc1ccc(-c2nc(-c3ccccc3)c(-c3ccccc3)[nH]2)cc1OC1CCCC1,> 100 µM,> 100 µM,> 100 µM,> 100 µM,> 100 µM,> 100 µM,49.8 µM,> 100 µM,> 100 µM,> 100 µM,> 100 µM,> 100 µM,15 µM,> 100 µM,–,–,> 100 µM,> 100 µM,> 100 µM,> 100 µM
COc1c(O)cc2oc(-c3ccc(O)cc3)cc(=O)c2c1O,–,> 100 µM,–,73.8 µM,–,–,–,> 100 µM,–,> 100 µM,–,63.7 µM,–,63.6 µM,–,> 100 µM,–,> 100 µM,–,68.1 µM
Cc1ccc(-c2nc(C#N)c(S(=O)(=O)n3nc(C)cc3N)o2)cc1,1.91 µM,3.38 µM,21.3 µM,58.1 µM,4.66 µM,20.9 µM,15.8 µM,30.5 µM,12.7 µM,25.6 µM,–,–,2.06 µM,6.91 µM,1.97 µM,3.6 µM,16.5 µM,30.1 µM,6.32 µM,19.8 µM
